Laboratory results taken from article PMC8653149, “Cyclic Analogs of Desferrioxamine E Siderophore for ^68Ga Nuclear Imaging: Coordination Chemistry and Biological Activity in Staphylococcus aureus” (Inorganic Chemistry, 2021).

Legend:
[1] = Fe(III) complex stability constants by potentiometric and pH-dependent UV–vis titrations; assay type: physicochemical; conditions: calculated for [L] = 1 × 10^–4, [M] = 1 × 10^–5 at pH 7.4
Experimental: Therefore, the stability constants of the first species formed in solution were determined from the spectrophotometric pH-dependent batch titrations carried out in the pH range of around 0.1–2 (Figure S3), by following the changes in the intense LMCT band of the metal complex. These values were further used as constant values in spectrophotometric or potentiometric titrations carried out in the pH range from 2 to 11 (Figure S3) to get the overall stability constants, logβFeL (Table S5). […] Metal–metal competition titrations were carried out at pH 1.6 for FOX 2-5 and FOX 2-4 and at pH 2 for the rest of the analogs and the native compound.
Potentiometric titrations were performed using an automatic titrator system Titrando 905 (Metrohm) equipped with a 800 Dosino dosing unit and a microburet with a volume of 2 mL. A combined glass electrode was calibrated each day for hydrogen ion concentration by 0.1 M HClO4 with CO2-free 0.1 M NaOH solutions. A stream of high purity grade argon, presaturated with water vapor, passed over the surface of the solution cell, filled with 3 mL of the studied solution. For each system, a minimum of four independent titrations was performed. The purity of ligand and accurate concentration of ligand solution were determined before each experiment with the Gran method[68] by potentiometric titration of the 3 mL sample of the ligand, with [L] ∼ 1 × 10^–3 M. In separate potentiometric titrations, the metal-to-ligand ratio was 1:1, and the concentration of metal was 2 × 10^–3 M. The potentiometric data were refined to obtain the overall Fe(III)-FOXE and Ga(III)-FOXE derivative binding constants (logβFe(III)L, logβGa(III)L).
The absorption measurements (200 nm–800 nm) were performed on a Varian Cary 300 Bio UV–visible spectrophotometer. The solutions were measured in high precision Quartz […] cuvettes (1 and 3 mL) with 1 cm lightpath (Hellma).
Two series of experiments were performed: (i) in the pH range of 0.1–2 and (ii) between pH 2 and 11. In the first series of experiments, (i) the stock solution of the ligand was divided into various batches followed by Fe(III) addition, with a constant total volume of 2 mL, [Fe(III)] = 2 × 10^–4 M, and a metal-to-ligand molar ratio of 1:1. The pH was controlled by concentration of the perchloric acid. After preparation, each solution was allowed to equilibrate for 1 h at 25 °C, and then its UV–vis spectrum was recorded.
The experimental sets with over 140 points collected in the pH range 2–11 for a single potentiometric measurement were imported to the […] software,[69] which uses nonlinear least-squares methods for data treatment. Spectroscopic data were refined using SPECFIT/32 software, which uses factor analysis to reduce the absorbance matrix and to extract the eigenvalues prior to the multiwavelength fit of the reduced data set according to the Marquardt algorithm and adjusts the absorptivity and the stability constants of the species formed at equilibrium.[70]−[72] Standard deviation was used for the calculation of the uncertainties in logβ. Speciation plots were prepared using HYSS software,[73] implementing data gathered in Tables S4, S5, and S8. Raw data was processed using Origin 7.0.

[2] = Ga(III) complex stability constants by Fe(III)–Ga(III) metal–metal competition, potentiometric and UV–vis pH-metric titrations; assay type: physicochemical; conditions: for pGa(III): calculated, pH 7.4; for logβ[GaHL]+: competition UV-Vis titrations; for logβ[GaHL]+ / logβ[GaL]: M:L 1:1, T = 25°C; for logβ[GaHL]+ / logβ[GaL] / pKNHOH (pK of [GaL] formation from [GaHL]+): I = 0.1 M NaClO4; for pKNHOH (pK of [GaL] formation from [GaHL]+): T = 25 °C
Description: The next step was to determine the coordination specificity of investigated ligands toward Ga(III) ions. This is a somewhat challenging task because it requires indirect methods since the investigated complexes started to form in a very acidic environment, where potentiometric measurements were not accurate owing to the error of the glass electrode,[55],[56] and gallium is spectroscopically silent in UV–vis. To bypass this inconvenience, we implemented metal–metal competition assays. After addition of a significant molar excess of Ga(III), the LMCT band of Fe(III)-FOXE analog complexes was almost fully silenced as Ga(III) replaced Fe(III) in its complexes (Figure S5). By implementing those spectral changes, we were able to calculate the stability constants of the Ga(III)-FOXE analog species present below or around pH 2, [GaHL]^+ (Table S8). Stability constants for the [GaL] species, present above pH 2, could be determined by potentiometric titrations for Ga(III)-FOX 2-2, 2-3, 2-4, and 3-5, with logβ of [GaHL]^+ fixed in the calculations (Table S8). For Ga(III)-FOX 2-5, we could not observe any deprotonation step using this methodology. To confirm this behavior, UV–vis titration of the Ga(III)-FOX 2-5 analog complex was performed in the 200–300 nm spectral range (Figure S6) corresponding to the hydroxamate groups’ protonation state.[57]−[59] […] Above pH 4, there were no significant changes in maxima localization or absorbance intensity. Above pH 9, absorbance started to rise again, which indicated complex dissociation. […] Overall, the data indicated a decreased stability of [GaL] species when decreasing or increasing the ring size of Ga(III)-FOX 2-5, as reflected by pKNHOH (Table S8). Implementing this full coordination specification of Ga(III)-FOX complexes, we were able to calculate speciation plots which are presented in Figure 1 for the most efficient analogs FOX 2-4 and FOX 2-5, given here as examples, and in Figure S7 for others.
Proposed biomimetic analogs of cyclic siderophore FOXE bind Fe(III) ions starting from pH around 0, and the complexation is essentially complete far below or around pH of 2. Therefore, the stability constants of the first species formed in solution were determined from the spectrophotometric pH-dependent batch titrations carried out in the pH range of around 0.1–2 (Figure S3), by following the changes in the intense LMCT band of the metal complex. These values were further used as constant values in spectrophotometric or potentiometric titrations carried out in the pH range from 2 to 11 (Figure S3) to get the overall stability constants, logβFeL (Table S5). Since Ga(III)-FOX complexes present similar coordination properties, the first species start to form below pH 2 as well. However, in this case, we have used indirect methods to determine stability constants for Ga(III)-FOXE analogs and the Ga(III) complex with native FOXE, as Ga(III) complexes are spectroscopically silent in the UV–vis region. Metal–metal competition titrations were carried out at pH 1.6 for FOX 2-5 and FOX 2-4 and at pH 2 for the rest of the analogs and the native compound. The intense LMCT band of the Fe(III) complex was silenced after addition of a fixed volume of Ga(III) ions (Figure S5).
Potentiometric titrations were performed using an automatic titrator system Titrando 905 (Metrohm) equipped with a 800 Dosino dosing unit and a microburet with a volume of 2 mL. A combined glass electrode was calibrated each day for hydrogen ion concentration by 0.1 M HClO4 with CO2-free 0.1 M NaOH solutions. A stream of high purity grade argon, presaturated with water vapor, passed over the surface of the solution cell, filled with 3 mL of the studied solution. For each system, a minimum of four independent titrations was performed. […]

[3] = potentiometric, [L] = 1·10^-3 M

pFe(III) [1]	pGa(III) [2]	logβ[GaHL]+ ([2]; [L] = 1·10^-4 M)	logβ[GaL] [2, 3]	pKNHOH (pK of [GaL] formation from [GaHL]+) [2]	logβ[GaL] ([2]; UV-Vis (metal–metal competition) titrations, [L] = 1·10^-4 M)	SMILES
21.5	21.4	28.48 (4)	26.52 (5)	–	–	O=C1CCN(O)C(=O)CCNC(=O)CCN(O)C(=O)CCNC(=O)CCN(O)C(=O)CCN1 [FOX 2-2]
27.0	25.2	–	–	–	29.52 (6)	O=C1CCCCCN(O)C(=O)CCNC(=O)CCCCCN(O)C(=O)CCNC(=O)CCCCCN(O)C(=O)CCN1 [FOX 2-5]
24.1	22.6	29.45 (1)	26.58 (4)	2.87	–	O=C1CCCCCN(O)C(=O)CCCNC(=O)CCCCCN(O)C(=O)CCCNC(=O)CCCCCN(O)C(=O)CCCN1 [FOX 3-5]

Further lines, the compound ahead of its results:

SMILES	pFe(III) [1]	pGa(III) [2]	logβ[GaHL]+ ([2]; [L] = 1·10^-4 M)	logβ[GaL] [2, 3]	pKNHOH (pK of [GaL] formation from [GaHL]+) [2]	logβ[GaL] ([2]; UV-Vis (metal–metal competition) titrations, [L] = 1·10^-4 M)
O=C1CCCN(O)C(=O)CCNC(=O)CCCN(O)C(=O)CCNC(=O)CCCN(O)C(=O)CCN1 [FOX 2-3]	22.7	20.8	28.30 (4)	26.02 (1)	2.28	–
O=C1CCCCN(O)C(=O)CCNC(=O)CCCCN(O)C(=O)CCNC(=O)CCCCN(O)C(=O)CCN1 [FOX 2-4]	24.3	21.8	28.84 (5)	26.28 (1)	2.56	–
